Laboratory results reported in patent US4474761A, “Oligopeptides with specific inhibiting properties of collagen induced aggregation, process for preparing the same and pharmaceutical compositions containing them” (Choay S.A., priority 1980, dated 1984).
Where no end group is shown, it is not given here. [ ]: non-standard residue; d: D form. Hyp = O=C(O)[C@@H]1C[C@@H](O)CN1

System: platelet membranes
Experiment: Linkage of tritiated nonapeptide to platelet membranes (filtration)
Assay type: binding
Details: for Linkage (%) after dissociation time: Table IX
Method: The study of the nature of the interaction between type III collagen and platelets is carried out in the presence of tritiated (labelled) nonapeptide of formula: […]
The complete platelets or the platelet membranes solubilized in triton (0.15%) are incubated in a physiological buffer of the type described above in the serotonin release test (in a total volume of 0.2 ml) at a temperature of 37° C. for 15 minutes. The incubation is carried out in presence of tritiated nonapeptide the specific activity of which is of […].
The nonapeptide fixed or linked to the platelet or to the membranes is separated from the free nonapeptide by filtration of the incubation medium through multiporous membranes having porosities of 0.8μ and 0.45μ respectively. The radio activity is directly determined on the filters and the percentage of linkages determined according to the following formula: [formula]
(c) Table VIII relates to the linkage specificity. It represents the linkage percentages between the platelet membranes and different peptides of the invention in the presence of various aggregation inducers (15 ng of peptide, 30 μg of platelet membrane).
The specificity of the linkage is assessed by the total displacement of the corresponding radio-activity by an excess of non labelled peptide of the invention. This excess corresponds to an amount of 100 to 1000 times more than the amount of non labelled peptide which is necessary to induce adhesion of the platelets.
Said reversibility has been studied in the presence of two concentrations of labelled (nona)peptide which are respectively of 3 and 6 ng, for 30 μg of platelet membranes. After the binding of the labelled nonapeptide to the membranes, the incubation media are diluted to the 80 volumes:
in the absence of non labelled (nona)peptide;
and in the presence of an excess of non labelled (nona)peptide (as indicated under c) for the reversibility test).
The percentage of linkage is then determined as a function of an incubation duration ranging from 0 to 15 minutes.
The reversibility is measured by the dissociation factor and the dissociation time.

Nc1ncnc2c1ncn2[C@@H]1O[C@H](COP(=O)(O)OP(=O)(O)O)[C@@H](O)[C@H]1O [ADP, reference compound]
Linkage % of Nonapeptide H^3 in presence of agent (Table VIII, Nonapeptide H^3 15 ng, platelet membranes 30 μg, agent 10^-2 M): 4.3%

CNCC(O)c1ccc(O)c(O)c1 (stereo not shown) [Adrenaline, reference compound]
Linkage % of Nonapeptide H^3 in presence of agent (Table VIII, Nonapeptide H^3 15 ng, platelet membranes 30 μg, agent 100 μg): 5.4%

CCCCC/C=C\C/C=C\C/C=C\C/C=C\CCCC(=O)O [Arachidonic acid, reference compound]
Linkage % of Nonapeptide H^3 in presence of agent (Table VIII, Nonapeptide H^3 15 ng, platelet membranes 30 μg, agent 6 nM): 4.1%

GK[Hyp]GE[Hyp]GPK [Nonapeptide H^3]
Linkage (%) after dissociation time (Nonapeptide H^3 3 ng, 30 μg membranes, dilution 1/80, 0'): 3.2% | Linkage (%) after dissociation time (Nonapeptide H^3 3 ng, dilution 1/80 + 100 μg of nonapeptide, 0'): 3.2% | Linkage (%) after dissociation time (Nonapeptide H^3 3 ng, dilution 1/80 + 100 μg of nonapeptide, 2'): 1% | Linkage (%) after dissociation time (Nonapeptide H^3 3 ng, dilution 1/80 + 100 μg of nonapeptide, 10'): 0.5% | Linkage (%) after dissociation time (Nonapeptide H^3 3 ng, dilution 1/80 + 100 μg of nonapeptide, 15'): 0.1% | Linkage (%) after dissociation time (Nonapeptide H^3 3 ng, dilution 1/80, 2'): 1.75% | Linkage (%) after dissociation time (Nonapeptide H^3 3 ng, dilution 1/80, 5'): 1.55% | Linkage (%) after dissociation time (Nonapeptide H^3 3 ng, dilution 1/80, 10'): 1% | Linkage (%) after dissociation time (Nonapeptide H^3 3 ng, dilution 1/80, 15'): 0.6% | Linkage (%) after dissociation time (Nonapeptide H^3 6 ng, dilution 1/80 + 100 μg of nonapeptide, 0'): 5.9% | Linkage (%) after dissociation time (Nonapeptide H^3 6 ng, dilution 1/80 + 100 μg of nonapeptide, 2'): 3% | Linkage (%) after dissociation time (Nonapeptide H^3 6 ng, dilution 1/80 + 100 μg of nonapeptide, 10'): 1.5% | Linkage (%) after dissociation time (Nonapeptide H^3 6 ng, dilution 1/80 + 100 μg of nonapeptide, 15'): 1% | Linkage (%) after dissociation time (Nonapeptide H^3 6 ng, dilution 1/80, 0'): 5.9% | Linkage (%) after dissociation time (Nonapeptide H^3 6 ng, dilution 1/80, 2'): 4.8% | Linkage (%) after dissociation time (Nonapeptide H^3 6 ng, dilution 1/80, 5'): 3% | Linkage (%) after dissociation time (Nonapeptide H^3 6 ng, dilution 1/80, 10'): 2.4% | Linkage (%) after dissociation time (Nonapeptide H^3 6 ng, dilution 1/80, 15'): 1.5% | Linkage (%) (Table VI, Nonapeptide H^3 3 ng, proteic concentration 20 μg): 2.1% | Linkage (%) (Table VI, Nonapeptide H^3 3 ng, proteic concentration 40 μg): 3.8% | Linkage (%) (Table VI, Nonapeptide H^3 3 ng, proteic concentration 60 μg): 4.3% | Linkage (%) (Table VI, Nonapeptide H^3 3 ng, proteic concentration 80 μg): 4.6% | Linkage (%) (Table VI, Nonapeptide H^3 3 ng, proteic concentration 100 μg): 5.3% | Linkage (%) (Table VI, Nonapeptide H^3 30 ng, proteic concentration 20 μg): 3.5% | Linkage (%) (Table VI, Nonapeptide H^3 30 ng, proteic concentration 40 μg): 4.3% | Linkage (%) (Table VI, Nonapeptide H^3 30 ng, proteic concentration 60 μg): 5% | Linkage (%) (Table VI, Nonapeptide H^3 30 ng, proteic concentration 80 μg): 5.8% | Linkage (%) (Table VI, Nonapeptide H^3 30 ng, proteic concentration 100 μg): 6.15% | Linkage (%) (Table VI, Nonapeptide H^3 30 ng, proteic concentration 200 μg): 10.4% | Linkage (%) (Table VI, Nonapeptide H^3 30 ng, proteic concentration 400 μg): 13% | Linkage (%) (Table VI, Nonapeptide H^3 30 ng, proteic concentration 450 μg): 13.8% | Linkage (%) (Table VII, Nonapeptide H^3 3 ng): 1.6% | Linkage (%) (Table VII, Nonapeptide H^3 6 ng): 3.5% | Linkage (%) (Table VII, Nonapeptide H^3 12 ng): 5.5% | Linkage (%) (Table VII, Nonapeptide H^3 60 ng): 7.5% | Linkage (%) (Table VII, Nonapeptide H^3 300 ng): 10.5% | Linkage (%) (Table VIII, Nonapeptide H^3 15 ng, platelet membranes 30 μg, agent 0): 4%
